The source made the active and inactive calls. How the calls were made is not given here.
Test system: CCRIS mutagenicity, Ames/micronucleus/aberration tests
Assay: CCRIS mutagenicity studies

Measured: mutagenic call

CCCCCCC(=O)O
inactive: Test System: AMES SALMONELLA TYPHIMURIUM, Strain/Indicator: TA97, Metabolic Activation: HAMSTER, LIVER, S-9, AROCLOR 1254 (10%), Method: PREINCUBATION inactive; negative | Test System: AMES SALMONELLA TYPHIMURIUM, Strain/Indicator: TA97, Metabolic Activation: HAMSTER, LIVER, S-9, AROCLOR 1254 (30%), Method: PREINCUBATION inactive; negative | Test System: AMES SALMONELLA TYPHIMURIUM, Strain/Indicator: TA97, Metabolic Activation: NONE, Method: PREINCUBATION inactive; negative | Test System: AMES SALMONELLA TYPHIMURIUM, Strain/Indicator: TA97, Metabolic Activation: RAT, LIVER, S-9, AROCLOR 1254 (10%), Method: PREINCUBATION inactive; negative | Test System: AMES SALMONELLA TYPHIMURIUM, Strain/Indicator: TA97, Metabolic Activation: RAT, LIVER, S-9, AROCLOR 1254 (30%), Method: PREINCUBATION inactive; negative | Test System: AMES SALMONELLA TYPHIMURIUM, Strain/Indicator: TA98, Metabolic Activation: HAMSTER, LIVER, S-9, AROCLOR 1254 (10%), Method: PREINCUBATION inactive; negative | Test System: AMES SALMONELLA TYPHIMURIUM, Strain/Indicator: TA98, Metabolic Activation: HAMSTER, LIVER, S-9, AROCLOR 1254 (30%), Method: PREINCUBATION inactive; negative | Test System: AMES SALMONELLA TYPHIMURIUM, Strain/Indicator: TA98, Metabolic Activation: NONE, Method: PREINCUBATION inactive; negative | Test System: AMES SALMONELLA TYPHIMURIUM, Strain/Indicator: TA98, Metabolic Activation: RAT, LIVER, S-9, AROCLOR 1254 (10%), Method: PREINCUBATION inactive; negative | Test System: AMES SALMONELLA TYPHIMURIUM, Strain/Indicator: TA98, Metabolic Activation: RAT, LIVER, S-9, AROCLOR 1254 (30%), Method: PREINCUBATION inactive; negative | Test System: AMES SALMONELLA TYPHIMURIUM, Strain/Indicator: TA100, Metabolic Activation: HAMSTER, LIVER, S-9, AROCLOR 1254 (10%), Method: PREINCUBATION inactive; negative | Test System: AMES SALMONELLA TYPHIMURIUM, Strain/Indicator: TA100, Metabolic Activation: HAMSTER, LIVER, S-9, AROCLOR 1254 (30%), Method: PREINCUBATION inactive; negative | Test System: AMES SALMONELLA TYPHIMURIUM, Strain/Indicator: TA100, Metabolic Activation: NONE, Method: PREINCUBATION inactive; negative | Test System: AMES SALMONELLA TYPHIMURIUM, Strain/Indicator: TA100, Metabolic Activation: RAT, LIVER, S-9, AROCLOR 1254 (10%), Method: PREINCUBATION inactive; negative | Test System: AMES SALMONELLA TYPHIMURIUM, Strain/Indicator: TA100, Metabolic Activation: RAT, LIVER, S-9, AROCLOR 1254 (30%), Method: PREINCUBATION inactive; negative | Test System: AMES SALMONELLA TYPHIMURIUM, Strain/Indicator: TA1535, Metabolic Activation: HAMSTER, LIVER, S-9, AROCLOR 1254 (10%), Method: PREINCUBATION inactive; negative | Test System: AMES SALMONELLA TYPHIMURIUM, Strain/Indicator: TA1535, Metabolic Activation: HAMSTER, LIVER, S-9, AROCLOR 1254 (30%), Method: PREINCUBATION inactive; negative | Test System: AMES SALMONELLA TYPHIMURIUM, Strain/Indicator: TA1535, Metabolic Activation: NONE, Method: PREINCUBATION inactive; negative | Test System: AMES SALMONELLA TYPHIMURIUM, Strain/Indicator: TA1535, Metabolic Activation: RAT, LIVER, S-9, AROCLOR 1254 (10%), Method: PREINCUBATION inactive; negative | Test System: AMES SALMONELLA TYPHIMURIUM, Strain/Indicator: TA1535, Metabolic Activation: RAT, LIVER, S-9, AROCLOR 1254 (30%), Method: PREINCUBATION inactive; negative | Test System: AMES SALMONELLA TYPHIMURIUM, Strain/Indicator: TA1537, Metabolic Activation: HAMSTER, LIVER, S-9, AROCLOR 1254 (30%), Method: PREINCUBATION inactive; negative | Test System: AMES SALMONELLA TYPHIMURIUM, Strain/Indicator: TA1537, Metabolic Activation: NONE, Method: PREINCUBATION inactive; negative | Test System: AMES SALMONELLA TYPHIMURIUM, Strain/Indicator: TA1537, Metabolic Activation: RAT, LIVER, S-9, AROCLOR 1254 (30%), Method: PREINCUBATION inactive; negative

O=C(CCCN1CC=C(n2c(=O)[nH]c3ccccc32)CC1)c1ccc(F)cc1
inactive: End Point: IN VITRO CHROMOSOMAL ABERRATIONS, Test System: HUMAN LYMPHOCYTES, Metabolic Activation: NONE inactive; negative
